Reference: PubChem BioAssay (NCI)
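96-well plates; 48 h exposure; 5 concentrations. Endpoints by linear interpolation between flanking doses. Not reached: highest tested concentration assigned. Abbreviation: GI50, concentration required for 50% inhibition of growth. TGI: total growth inhibition.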

Experiments:
Experiment in all cases: DTP human tumour cell line panel, 48 h
SK-OV-3 ovarian = test system: SK-OV-3 ovarian
HOP-92 NSCLC = test system: HOP-92 NSCLC
NCI-H226 lung = test system: NCI-H226 lung
M14 melanoma = test system: M14 melanoma
SF-295 CNS = test system: SF-295 CNS
HCT-15 colon = test system: HCT-15 colon
SW-620 colon = test system: SW-620 colon
786-0 renal = test system: 786-0 renal
SK-MEL-28 melanoma = test system: SK-MEL-28 melanoma
UO-31 renal = test system: UO-31 renal
U251 CNS = test system: U251 CNS
OVCAR-8 ovarian = test system: OVCAR-8 ovarian
CAKI-1 renal = test system: CAKI-1 renal
ACHN renal = test system: ACHN renal
COLO 205 colon = test system: COLO 205 colon
MOLT-4 leukemia = test system: MOLT-4 leukemia
HL-60(TB) leukemia = test system: HL-60(TB) leukemia
MDA-MB-468 breast = test system: MDA-MB-468 breast
A549 NSCLC = test system: A549 NSCLC
LOX IMVI melanoma = test system: LOX IMVI melanoma
A498 renal = test system: A498 renal
TK-10 renal = test system: TK-10 renal
MCF7 breast = test system: MCF7 breast
MDA-MB-231 breast = test system: MDA-MB-231 breast
OVCAR-3 ovarian = test system: OVCAR-3 ovarian
HCT-116 colon = test system: HCT-116 colon
PC-3 prostate = test system: PC-3 prostate
HT29 colon = test system: HT29 colon
OVCAR-5 ovarian = test system: OVCAR-5 ovarian
SN12C renal = test system: SN12C renal
UACC-257 melanoma = test system: UACC-257 melanoma
NCI-H522 lung = test system: NCI-H522 lung
RXF 393 renal = test system: RXF 393 renal
IGROV1 ovarian = test system: IGROV1 ovarian
HCC-2998 colon = test system: HCC-2998 colon
HS 578T breast = test system: HS 578T breast
NCI-H23 lung = test system: NCI-H23 lung
RPMI-8226 leukemia = test system: RPMI-8226 leukemia
CCRF-CEM leukemia = test system: CCRF-CEM leukemia
SK-MEL-5 melanoma = test system: SK-MEL-5 melanoma
T-47D breast = test system: T-47D breast
SNB-19 CNS = test system: SNB-19 CNS
MALME-3M melanoma = test system: MALME-3M melanoma
SF-539 CNS = test system: SF-539 CNS
EKVX NSCLC = test system: EKVX NSCLC
K-562 leukemia = test system: K-562 leukemia
UACC-62 melanoma = test system: UACC-62 melanoma
NCI/ADR-RES ovarian = test system: NCI/ADR-RES ovarian
SF-268 CNS = test system: SF-268 CNS
SNB-75 CNS = test system: SNB-75 CNS
MDA-MB-435 = test system: MDA-MB-435
NCI-H460 lung = test system: NCI-H460 lung
SK-MEL-2 melanoma = test system: SK-MEL-2 melanoma
KM12 colon = test system: KM12 colon
BT-549 breast = test system: BT-549 breast
DU-145 prostate = test system: DU-145 prostate
OVCAR-4 ovarian = test system: OVCAR-4 ovarian
HOP-62 NSCLC = test system: HOP-62 NSCLC

Cc1ccccc1[C@H]1C(C(=O)c2ccc(Cl)cc2)C2(N[C@@H]1c1ccccc1)C(=O)Nc1ccc(Br)cc12 (stereo partly specified) was tested, and the GI50 (SK-OV-3 ovarian) was 6.75 µM, the TGI (SK-OV-3 ovarian) was 15.9 µM and the GI50 (HOP-92 NSCLC) was 2.99 µM. It also gave a TGI (HOP-92 NSCLC) of 7.93 µM, a GI50 (NCI-H226 lung) of 5.39 µM and a TGI (NCI-H226 lung) of 10.6 µM. For the same compound, the GI50 (M14 melanoma) was 5.9 µM, the TGI (M14 melanoma) was 11.1 µM and the GI50 (SF-295 CNS) was 4.77 µM. For the same compound, the TGI (SF-295 CNS) was 9.52 µM, the GI50 (HCT-15 colon) was 5.39 µM and the TGI (HCT-15 colon) was 10.7 µM. The GI50 (SW-620 colon) was 5.9 µM, the TGI (SW-620 colon) was 11.7 µM and the GI50 (786-0 renal) was 5.9 µM. It also gave a TGI (786-0 renal) of 10.9 µM, a GI50 (SK-MEL-28 melanoma) of 5.78 µM and a TGI (SK-MEL-28 melanoma) of 10.7 µM. For the same compound, the GI50 (UO-31 renal) was 4.41 µM, the TGI (UO-31 renal) was 8.94 µM and the GI50 (U251 CNS) was 5.6 µM. For the same compound, the TGI (U251 CNS) was 12.1 µM, the GI50 (OVCAR-8 ovarian) was 6.35 µM and the TGI (OVCAR-8 ovarian) was 15 µM. For the same compound, the GI50 (CAKI-1 renal) was 4.11 µM, the TGI (CAKI-1 renal) was 8.63 µM and the GI50 (ACHN renal) was 5.76 µM. The TGI (ACHN renal) was 10.7 µM, the GI50 (COLO 205 colon) was 5.7 µM and the TGI (COLO 205 colon) was 11.1 µM. For the same compound, the GI50 (MOLT-4 leukemia) was 6.48 µM, the TGI (MOLT-4 leukemia) was 23.3 µM and the GI50 (HL-60(TB) leukemia) was 9.02 µM. The TGI (HL-60(TB) leukemia) was 28.7 µM, the GI50 (MDA-MB-468 breast) was 5.24 µM and the TGI (MDA-MB-468 breast) was 10.1 µM. It also gave a GI50 (A549 NSCLC) of 5.44 µM, a TGI (A549 NSCLC) of 11.8 µM and a GI50 (LOX IMVI melanoma) of 5.22 µM. It also gave a TGI (LOX IMVI melanoma) of 9.99 µM, a GI50 (A498 renal) of 6.11 µM and a TGI (A498 renal) of 11.7 µM. For the same compound, the GI50 (TK-10 renal) was 5.54 µM, the TGI (TK-10 renal) was 10.9 µM and the GI50 (MCF7 breast) was 4.33 µM. It also gave a TGI (MCF7 breast) of 10.2 µM, a GI50 (MDA-MB-231 breast) of 5.34 µM and a TGI (MDA-MB-231 breast) of 10.2 µM. For the same compound, the GI50 (OVCAR-3 ovarian) was 3.77 µM, the TGI (OVCAR-3 ovarian) was 8.32 µM and the GI50 (HCT-116 colon) was 5.26 µM. The TGI (HCT-116 colon) was 10.2 µM, the GI50 (PC-3 prostate) was 4.09 µM and the TGI (PC-3 prostate) was 9.8 µM. It also gave a GI50 (HT29 colon) of 5.52 µM, a TGI (HT29 colon) of 13.2 µM and a GI50 (OVCAR-5 ovarian) of 4.89 µM. The TGI (OVCAR-5 ovarian) was 9.61 µM, the GI50 (SN12C renal) was 4.8 µM and the TGI (SN12C renal) was 9.56 µM. The GI50 (UACC-257 melanoma) was 5.77 µM, the TGI (UACC-257 melanoma) was 11.5 µM and the GI50 (NCI-H522 lung) was 5.86 µM. The TGI (NCI-H522 lung) was 11.5 µM, the GI50 (RXF 393 renal) was 3.67 µM and the TGI (RXF 393 renal) was 8.34 µM. The GI50 (IGROV1 ovarian) was 4.85 µM, the TGI (IGROV1 ovarian) was 10.4 µM and the GI50 (HCC-2998 colon) was 5.87 µM. For the same compound, the TGI (HCC-2998 colon) was 10.9 µM, the GI50 (HS 578T breast) was 5.62 µM and the TGI (HS 578T breast) was 18.5 µM. The GI50 (NCI-H23 lung) was 5.39 µM, the TGI (NCI-H23 lung) was 10.9 µM and the GI50 (RPMI-8226 leukemia) was 7.29 µM. For the same compound, the TGI (RPMI-8226 leukemia) was 23.4 µM, the GI50 (CCRF-CEM leukemia) was 7.4 µM and the TGI (CCRF-CEM leukemia) was 22.4 µM. It also gave a GI50 (SK-MEL-5 melanoma) of 5.83 µM, a TGI (SK-MEL-5 melanoma) of 10.8 µM and a GI50 (T-47D breast) of 4.09 µM. The TGI (T-47D breast) was 9.42 µM, the GI50 (SNB-19 CNS) was 6.08 µM and the TGI (SNB-19 CNS) was 12.1 µM. It also gave a GI50 (MALME-3M melanoma) of 5.35 µM, a TGI (MALME-3M melanoma) of 10.3 µM and a GI50 (SF-539 CNS) of 5.99 µM. For the same compound, the TGI (SF-539 CNS) was 11.2 µM, the GI50 (EKVX NSCLC) was 4.33 µM and the TGI (EKVX NSCLC) was 9.25 µM. It also gave a GI50 (K-562 leukemia) of 8.79 µM, a TGI (K-562 leukemia) of 36.5 µM and a GI50 (UACC-62 melanoma) of 4.69 µM. It also gave a TGI (UACC-62 melanoma) of 9.48 µM, a GI50 (NCI/ADR-RES ovarian) of 5.54 µM and a TGI (NCI/ADR-RES ovarian) of 12.1 µM. It also gave a GI50 (SF-268 CNS) of 4.74 µM, a TGI (SF-268 CNS) of 10.2 µM and a GI50 (SNB-75 CNS) of 2.7 µM. It also gave a TGI (SNB-75 CNS) of 9.33 µM, a GI50 (MDA-MB-435) of 5.61 µM and a TGI (MDA-MB-435) of 10.6 µM. For the same compound, the GI50 (NCI-H460 lung) was 6.07 µM, the TGI (NCI-H460 lung) was 12.7 µM and the GI50 (SK-MEL-2 melanoma) was 5.32 µM. The TGI (SK-MEL-2 melanoma) was 10.7 µM, the GI50 (KM12 colon) was 5.63 µM and the TGI (KM12 colon) was 11.6 µM. For the same compound, the GI50 (BT-549 breast) was 5.56 µM, the TGI (BT-549 breast) was 10.6 µM and the GI50 (DU-145 prostate) was 5.46 µM. It also gave a TGI (DU-145 prostate) of 10.6 µM, a GI50 (OVCAR-4 ovarian) of 4.72 µM and a TGI (OVCAR-4 ovarian) of 10.5 µM. The GI50 (HOP-62 NSCLC) was 5.91 µM and the TGI (HOP-62 NSCLC) was 11.6 µM.
